The results in this text go back to US20130123107A1, “Use of Adjuvants to Improve Abscisic Acid Performance” (Valent BioSciences Corporation, priority 2007, published 2013).

This assay relates to Crimson seedless grapes. Put plainly: grape coloring field study, ABA with or without Latron B-1956. Type of assay: in vivo. The note with it: for Harvest yield (%): harvest at 64 days after treatment, yield percent with sufficient color. The method, then:
A grape coloring field study was conducted at Caruthers, Calif., ABA alone at 100 or 200 ppm or its combination with 0.05% Latron B-1956 was foliar applied to Crimson seedless grapes. Number of clusters, with color was counted on a weekly basis, beginning at 21 days after treatment. Percentage of clusters with color was calculated. Grape yield was harvested at 64 days after treatment.
All experiments were conducted using a randomized complete block experimental design. Data were analyzed by analysis of variance. Duncan's new multiple range tests at α-005 were used for mean separations.
The effect of 0.05% Latron B-1956 on ABA (100 or 200 ppm) performance in grape coloration was examined (Table 15). Addition of Latron B-1956 increased the percent clusters with color for ABA at 100 or 200 ppm after application and increased the harvest yield percent with sufficient color. ABA at 200 ppm with or without Latron 13-1956 had more color and greater yield than at 100 ppm.

As to “(S)-5-(1-hydroxy-2,6,6,-trimethyl-4-oxo-2-cyclohexen-1-yl)-3-methyl-(2Z,4E)-pentadienoic acid [ABA]”, the “% clusters with color” value was determined as 1.8% (100 ppm ABA foliar applied, 21 days after application); 2.7% (100 ppm ABA foliar applied, 27 days after application); 5.7% (100 ppm ABA foliar applied, 35 days after application); 7.5% (100 ppm ABA foliar applied, 43 days after application); 9.4% (100 ppm ABA foliar applied, 50 days after application); 26.1% (100 ppm ABA foliar applied, 56 days after application). The “% clusters with color” value turned out to be 26.2% (100 ppm ABA foliar applied, 62 days after application); 31.2% (100 ppm ABA foliar applied, 64 days after application); 7.0% (200 ppm ABA foliar applied, 21 days after application); 10.7% (200 ppm ABA foliar applied, 27 days after application); 17.3% (200 ppm ABA foliar applied, 35 days after application); 20.5% (200 ppm ABA foliar applied, 43 days after application). Besides, the “% clusters with color” value (200 ppm ABA foliar applied, 50 days after application) stood at 22.7%; the “% clusters with color” value (200 ppm ABA foliar applied, 56 days after application) is on record as 47.9%; the “% clusters with color” value (200 ppm ABA foliar applied, 62 days after application) amounted to 50.3%; the “% clusters with color” value (200 ppm ABA foliar applied, 64 days after application) was determined as 56.4%. For the same substance, the “Harvest yield (%)” value worked out at 25.5% (100 ppm ABA foliar applied) and 49.1% (200 ppm ABA foliar applied).
